Our source for the IC50 values is US11634417B2 (Array BioPharma Inc., priority 2019, dated 2023).

In assay [1] the target is T1, full-length SHP2 (Homo sapiens, UniProt Q06124).
T1 construct: 1 nM full-length SHP2 (His6-tagged SHP2(2-527), recombinantly expressed in E. coli and purified in-house); His6; made in house; host or cells: E. coli
T1 sequence (Q06124 2-527): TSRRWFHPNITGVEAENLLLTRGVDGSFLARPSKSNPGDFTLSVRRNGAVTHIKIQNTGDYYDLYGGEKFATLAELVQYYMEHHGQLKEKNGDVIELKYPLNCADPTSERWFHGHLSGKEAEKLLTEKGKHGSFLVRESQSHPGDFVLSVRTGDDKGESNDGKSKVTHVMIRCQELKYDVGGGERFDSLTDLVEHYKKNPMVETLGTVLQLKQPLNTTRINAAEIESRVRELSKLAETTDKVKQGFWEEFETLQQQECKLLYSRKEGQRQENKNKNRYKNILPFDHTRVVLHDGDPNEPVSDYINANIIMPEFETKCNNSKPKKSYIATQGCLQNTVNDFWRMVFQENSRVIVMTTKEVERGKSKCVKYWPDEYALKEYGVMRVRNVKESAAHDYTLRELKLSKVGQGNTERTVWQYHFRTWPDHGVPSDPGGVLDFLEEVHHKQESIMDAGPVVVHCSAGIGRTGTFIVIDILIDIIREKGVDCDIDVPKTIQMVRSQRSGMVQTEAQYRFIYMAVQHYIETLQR
Nature of the assay: SHP2 enzymatic assay (fluorescence intensity kinetic assay, DiFMUP hydrolysis). The following applies: 1 nM His6-tagged SHP2(2-527), 1 μM activating peptide, 50 μM DiFMUP; single assay or mean of multiple assays; read-out: Biological Example 1 IC50. In kind it is biochemical. Here is the method:
A fluorescence intensity kinetic assay was configured for full-length SHP2 that monitors the amount of 6,8-difluoro-7-hydroxy-4-methylcoumarin (“DiFMU”) formed upon hydrolysis of 6,8-difluoro-4-methylumbelliferyl phosphate (“DiFMUP”) by SHP2. […] Low control wells lacked enzyme. The assays were initiated by the addition of a mixture of SHP2 and the activating peptide, and following a 15 second mix on an orbital shaker, were read in kinetic mode for 15 minutes (30 seconds/cycle) at ambient temperature on a PerkinElmer EnVision microplate reader (kEx=355 nm, kEm=460 nm). Initial velocities (slopes of the tangents at t=0) were estimated from exponential fits to the slightly nonlinear progress curves and then were converted to percent of control (“POC”) using the following equation:
[formula] • Where: xmax Average Uninhibited Controls • Xmin Average Background A 4-parameter logistic model was the fit to the POC data for each compound. From that fit, the IC50 was estimated and is defined as the concentration of compound at which the curve crosses 50 POC.

For assay [2], the system named is ERK1/2 (Thr202/Tyr204) phosphorylation in KYSE520 cells. The experiment in a line: Cellular Phospho-p44/42 MAPK (Erk1/2) (Thr202/Tyr204) assay, In-Cell Western. In kind it is cell-based. The settings on record: Homo sapiens, KYSE-520; KYSE520 cells, 1 hour incubation, pERK signal normalized to GAPDH; single assay or mean of multiple assays; read-out: Biological Example 2 IC50. Here is the method: Inhibition of ERK1/2 (Thr202/Tyr204) phosphorylation was determined by the following cellular assay, which comprises incubating cells with a compound for 1 hour and quantifying pERK signal by In-Cell Western on fixed cells and normalizing to GAPDH signal. KYSE520 cells were obtained from DSMZ and grown in RPMI supplemented with 10% fetal bovine serum, penicillin/streptomycin, 2 mM L-alanyl-L-glutamine dipeptide in 0.85% NaCl (Glutamax™), non-essential amino acids, and sodium pyruvate. Cells were plated in 96-well plates at 30,000 cells/well and allowed to attach overnight at 37° C./5% CO2. Cells were treated with compounds prepared as a 10-point, 1:3 dilution series (range: 20 μM-1 nM), with a final DMSO concentration of 0.5%. After 1 hour incubation, cells were fixed in 3.7% formaldehyde in Dulbecco's phosphate-buffered saline (“dPBS”) at room temperature for 20 minutes. Cells were then washed with dPBS and permeabilized in 100% MeOH at room temperature for 10 minutes. Following permeabilization, cells were washed in dPBS and incubated in LI-COR Blocking Buffer (LI-COR Biosciences, Cat #927-40000) for 1 hour or longer. Plates were then incubated with an antibody specific for the MEK-dependent ERK1/2 phosphorylation sites, threonine 202 and tyrosine 204 (Cell Signaling Technologies; Cat #9101), downstream of SHP2 in the MAP kinase signal transduction pathway, as well as GAPDH (Millipore; Cat #MAB374). pErk1/2 (Thr202/Tyr204) antibody was diluted in LI-COR blocking buffer containing 0.05% polysorbate-20 (Tween-20) at 1:250; GAPDH was diluted at 1:2,500. The plates were incubated overnight at 4° C. After washing with PBS/0.05% Tween-20, the cells were incubated with fluorescently-labeled secondary antibodies (Anti-rabbit-Alexa Flour680, Invitrogen Cat #A21109; Anti-mouse-IRDye800CW, Li-cor Bioscieces Cat #926-32210, both at 1:1000 dilution) for 1 hour. Cells were then washed, as above, and analyzed for fluorescence at both 680 nm and 800 nm wavelengths using the Aerius Infrared Imaging System (LI-COR Biosciences, Model 9250). Phosphorylated Erk1/2 ([…]) signal was normalized to GAPDH signal for each well. IC50 values were calculated from the normalized values using a 4-parameter fit in BioAssay software. The reported IC50 in Table 2 may be from a single assay or the mean of multiple assays.

A word on the IC50: it is the concentration at which inhibition is half-maximal. In the case of `C[C@@H]1OCC2(CCN(c3ncc(Sc4cccc(Cl)c4Cl)nn3)CC2)[C@@H]1N` [Example 7, (3S,4S)-8-(6-((2,3-dichlorophenyl)thio)-1,2,4-triazin-3-yl)-3-methyl-2-oxa-8-azaspiro[4.5]decan-4-amine], the results for the IC50 in assay [1] and in assay [2] were 17 nM and 89 nM, respectively.

Regarding `Nc1nccc(Sc2cnc(N3CCC4(CC3)Cc3ccc(Cl)cc3[C@H]4N)nn2)c1Cl` [Example 64, (S)-1′-(6-((2-amino-3-chloropyridin-4-yl)thio)-1,2,4-triazin-3-yl)-6-chloro-1,3-dihydrospiro[indene-2,4′-piperidin]-1-amine], the values for the IC50 in assay [1] and in assay [2] were 41 nM and 286 nM, respectively.

For the molecule `N[C@@H]1c2ccccc2CC12CCN(c1ncc(Oc3ccccc3)nn1)CC2` [Example 81, (S)-1′-(6-phenoxy-1,2,4-triazin-3-yl)-1,3-dihydrospiro[indene-2,4′-piperidin]-1-amine], the IC50 in assay [1] worked out at 4 nM; in assay [2], 8 nM.

Regarding `Nc1nccc(Sc2cnc(N3CCC4(CC3)Cc3cc(Cl)ccc3[C@H]4N)nn2)c1Cl` [Example 17, (S)-1′-(6-((2-amino-3-chloropyridin-4-yl)thio)-1,2,4-triazin-3-yl)-5-chloro-1,3-dihydrospiro[indene-2,4′-piperidin]-1-amine], the IC50 was found to be 25 nM in assay [1] and 9 nM in assay [2].

Regarding `CC(C)(C#N)CNc1nccc(Sc2cnc(N3CCC4(CC3)Cc3ccccc3[C@H]4N)nn2)c1Cl` [Example 36, (S)-3-((4-((3-(1-amino-1,3-dihydrospiro[indene-2,4′-piperidin]-1′-yl)-1,2,4-triazin-6-yl)thio)-3-chloropyridin-2-yl)amino)-2,2-dimethylpropanenitrile], the results for the IC50 in assay [1] and in assay [2] were 110 nM and 17 nM, respectively.

Take `CC1(N)CCCN(c2ncc(Sc3cccc(Cl)c3Cl)nn2)CC1` (centres unmarked) [Example 11, 1-(6-((2,3-dichlorophenyl)thio)-1,2,4-triazin-3-yl)-4-methylazepan-4-amine]: the IC50 in assay [1] was 210 nM; in assay [2] it was 1970 nM.

On to `Cc1cccc2c1CC1(CCN(c3ncc(Sc4ccnc(N)c4Cl)nn3)CC1)[C@@H]2N` [Example 48, (S)-1′-(6-((2-amino-3-chloropyridin-4-yl)thio)-1,2,4-triazin-3-yl)-4-methyl-1,3-dihydrospiro[indene-2,4′-piperidin]-1-amine], for which the IC50 in assay [1] stood at 30 nM; in assay [2], 5 nM.

Take `N[C@@H]1c2ccccc2CC12CCN(c1ncc(Sc3n[nH]c4ncccc34)nn1)CC2` [Example 27, (S)-1′-(6-((1H-pyrazolo[3,4-b]pyridin-3-yl)thio)-1,2,4-triazin-3-yl)-1,3-dihydrospiro[indene-2,4′-piperidin]-1-amine]: the IC50 came to 17 nM in assay [1] and 11 nM in assay [2].

As for `Nc1nccc(Sc2cnc(N3CCC4(CC3)Cc3ccccc3[C@H]4N)nn2)c1Br` [Example 52, (S)-1′-(6-((2-amino-3-bromopyridin-4-yl)thio)-1,2,4-triazin-3-yl)-1,3-dihydrospiro[indene-2,4′-piperidin]-1-amine], the results for the IC50 in assay [1] and in assay [2] were 27 nM and 2 nM, respectively.

Take `C[C@@H]1OCC2(CCN(c3ncc(Sc4ccnc5c4ccn5C)nn3)CC2)[C@@H]1N` [Example 29, (3S,4S)-3-methyl-8-(6-((1-methyl-1H-pyrrolo[2,3-b]pyridin-4-yl)thio)-1,2,4-triazin-3-yl)-2-oxa-8-azaspiro[4.5]decan-4-amine]: the IC50 in assay [1] turned out to be 96 nM; in assay [2] it was 206 nM.

Consider `N[C@@H]1c2ccccc2CC12CCN(c1ncc(Sc3ccnc4c3CCN4)nn1)CC2` [Example 70, (S)-1′-(6-((2,3-dihydro-1H-pyrrolo[2,3-b]pyridin-4-yl)thio)-1,2,4-triazin-3-yl)-1,3-dihydrospiro[indene-2,4′-piperidin]-1-amine], for which the IC50 amounted to 36 nM in assay [1] and 9 nM in assay [2].

`N[C@@H]1c2ccccc2CC12CCN(c1ncc(Sc3ccnc(NCCO)c3Cl)nn1)CC2` [Example 83, (S)-2-((4-((3-(1-amino-1,3-dihydrospiro[indene-2,4′-piperidin]-1′-yl)-1,2,4-triazin-6-yl)thio)-3-chloropyridin-2-yl)amino)ethan-1-ol]: the IC50 in assay [1] worked out at 46 nM; in assay [2], 3 nM.

In the case of `Cc1ccc2c(c1)[C@@H](N)C1(CCN(c3ncc(Sc4ccnc(N)c4Cl)nn3)CC1)C2` [Example 45, (S)-1′-(6-((2-amino-3-chloropyridin-4-yl)thio)-1,2,4-triazin-3-yl)-6-methyl-1,3-dihydrospiro[indene-2,4′-piperidin]-1-amine], the IC50 in assay [1] was 14 nM; in assay [2], 2 nM.

For the molecule `Nc1nccc(Sc2cnc(N3CCC4(CC3)Cc3ncsc3[C@H]4N)nn2)c1Cl` [Example 58, (S)-1′-(6-((2-amino-3-chloropyridin-4-yl)thio)-1,2,4-triazin-3-yl)-4,6-dihydrospiro[cyclopenta[d]thiazole-5,4′-piperidin]-6-amine], the IC50 in assay [1] was 39 nM; in assay [2] it was 1 nM.

Regarding `CNc1nccc(Sc2cnc(N3CCC4(CC3)Cc3cc(C#N)ccc3[C@@H]4N)nn2)c1Cl` (single isomer, unassigned) [Example 42], the half-inhibitory concentration (IC50) stood at 209 nM in assay [1] and 813 nM in assay [2].

Take `Nc1nccc(Sc2cnc(N3CCC4(CC3)Cc3ncccc3[C@H]4N)nn2)c1Cl` [Example 24, (S)-1′-(6-((2-amino-3-chloropyridin-4-yl)thio)-1,2,4-triazin-3-yl)-5,7-dihydrospiro[cyclopenta[b]pyridine-6,4′-piperidin]-5-amine]: the figures for the IC50 in assay [1] and in assay [2] were 47 nM and 5 nM, respectively.

In the case of `N[C@@H]1c2ccccc2CC12CCN(c1ncc(Cc3ccccc3)nn1)CC2` [Example 33, (S)-1′-(6-benzyl-1,2,4-triazin-3-yl)-1,3-dihydrospiro[indene-2,4′-piperidin]-1-amine], the IC50 in assay [1] worked out at 98 nM; in assay [2], 366 nM.

For the molecule `Nc1nccc(Sc2cnc(N3CCC4(CC3)Cc3ncc(Cl)cc3[C@H]4N)nn2)c1Cl` [Example 65, (S)-1′-(6-((2-amino-3-chloropyridin-4-yl)thio)-1,2,4-triazin-3-yl)-3-chloro-5,7-dihydrospiro[cyclopenta[b]pyridine-6,4′-piperidin]-5-amine], the IC50 in assay [1] amounted to 64 nM; in assay [2], 81 nM.

In the case of `N[C@@H]1c2ccccc2CC12CCN(c1ncc(-c3ccccc3Cl)nn1)CC2` [Example 31, (S)-1′-(6-(2-chlorophenyl)-1,2,4-triazin-3-yl)-1,3-dihydrospiro[indene-2,4′-piperidin]-1-amine], the IC50 in assay [1] stood at 23 nM; in assay [2] it was 424 nM.
